In PubChem BioAssay AID256 (DTP/NCI, 2004) one finds T/C data, which are given here for 22 compounds.

The subject of this test is CD2F1 mice, L1210 leukemia ip, survival T/C. Kind of test: NCI In Vivo Anticancer Drug Screen. Data for tumor model L1210 Leukemia (intraperitoneal) in CD2F1 (CDF1) mice. Particulars: higher = longer survival. The method, boiled down: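 Activity against a transplanted murine tumor was judged by comparing the compound group with a vehicle group. The outcome in the treated animals was divided by that in the controls.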

The mark [1] stands for this setting: endpoint: mean survival time, dose: 100.0 mg/kg/injection, schedule: Q04DX003 (ip), vehicle: saline with Tween-80.
The mark [2] stands for this setting: endpoint: mean survival time, dose: 200.0 mg/kg/injection, schedule: Q04DX003 (ip), vehicle: saline with Tween-80.
[3] abbreviates: endpoint: mean survival time, dose: 100.0 mg/kg/injection, schedule: Q01DX001 (ip), vehicle: saline with Tween-80.
Setting [4] is: endpoint: mean survival time, dose: 200.0 mg/kg/injection, schedule: Q01DX001 (ip), vehicle: saline with Tween-80.
The mark [5] stands for this setting: endpoint: mean survival time, dose: 50.0 mg/kg/injection, schedule: Q04DX003 (ip), vehicle: saline.
The mark [6] stands for this setting: endpoint: mean survival time, dose: 50.0 mg/kg/injection, schedule: Q01DX009 (ip), vehicle: Klucel (hydroxypropylcellulose) (HPC).
[7] abbreviates: endpoint: mean survival time, dose: 100.0 mg/kg/injection, schedule: Q01DX009 (ip), vehicle: Klucel (hydroxypropylcellulose) (HPC).
Where [8] appears, read: endpoint: mean survival time, dose: 200.0 mg/kg/injection, schedule: Q01DX009 (ip), vehicle: Klucel (hydroxypropylcellulose) (HPC).
The mark [9] stands for this setting: endpoint: mean survival time, dose: 100.0 mg/kg/injection, schedule: Q01DX009 (ip), vehicle: saline with Tween-80.
Where [10] appears, read: endpoint: mean survival time, dose: 200.0 mg/kg/injection, schedule: Q01DX009 (ip), vehicle: saline with Tween-80.
Setting [11] is: endpoint: mean survival time, dose: 400.0 mg/kg/injection, schedule: Q01DX009 (ip), vehicle: saline with Tween-80.
[12] abbreviates: endpoint: mean survival time, dose: 50.0 mg/kg/injection, schedule: Q04DX002 (ip), vehicle: saline.
Where [13] appears, read: endpoint: mean survival time, dose: 50.0 mg/kg/injection, schedule: Q01DX009 (ip), vehicle: saline with Tween-80.

Toxic doses and inconclusive results are not listed.

Consider `CCOC(=O)CC1CC(CN)(C(=O)OCC)CO1` (stereo not given), for which the T/C is 95 % of control under setting [1]; 95 % of control under setting [2]; 100 % of control (endpoint: mean survival time, dose: 400.0 mg/kg/injection, schedule: Q04DX003 (ip), vehicle: saline with Tween-80).
For `CCOC(=O)CCC(NC(=O)N(CCCl)CCCl)C(=O)OCC` (stereo not given), the T/C runs as follows: (endpoint: mean survival time, dose: 25.0 mg/kg/injection, schedule: Q01DX001 (ip), vehicle: carboxymethylcellulose (CMC)) 97 % of control; (endpoint: mean survival time, dose: 50.0 mg/kg/injection, schedule: Q01DX001 (ip), vehicle: carboxymethylcellulose (CMC)) 106 % of control; (endpoint: mean survival time, dose: 100.0 mg/kg/injection, schedule: Q01DX001 (ip), vehicle: saline) 103 % of control; (endpoint: mean survival time, dose: 200.0 mg/kg/injection, schedule: Q01DX001 (ip), vehicle: saline) 114 % of control; (endpoint: mean survival time, dose: 900.0 mg/kg/injection, schedule: Q01DX001 (ip), vehicle: carboxymethylcellulose (CMC)) 102 % of control.
With `COc1ccc(/C=C2\Oc3cc(O)ccc3C2=O)cc1O`, the T/C is, setting by setting: under setting [3], 96 % of control; under setting [4], 94 % of control; (endpoint: mean survival time, dose: 400.0 mg/kg/injection, schedule: Q01DX001 (ip), vehicle: saline with Tween-80) 91 % of control.
Take `Cc1ccccc1[As](c1ccccc1C)c1ccccc1C`: the T/C is, setting by setting: (endpoint: mean survival time, dose: 25.0 mg/kg/injection, schedule: Q01DX009 (ip), vehicle: saline) 86 % of control; (endpoint: mean survival time, dose: 100.0 mg/kg/injection, schedule: Q01DX009 (ip), vehicle: saline) 86 % of control.
On to `CC1=C/C(O)CC(=O)Cc2nc(co2)C(=O)N2CCC=C2C(=O)OC(C(C)C)C(C)/C=C\C(=O)NC/C=C\1` (stereo not given), for which the T/C by setting is: (endpoint: mean survival time, dose: 1.0 micrograms/kg/injection, schedule: Q01DX009 (ip), vehicle: Klucel (hydroxypropylcellulose) (HPC)) 98 % of control; (endpoint: mean survival time, dose: 2.0 micrograms/kg/injection, schedule: Q01DX009 (ip), vehicle: Klucel (hydroxypropylcellulose) (HPC)) 101 % of control; (endpoint: mean survival time, dose: 4.0 micrograms/kg/injection, schedule: Q01DX009 (ip), vehicle: Klucel (hydroxypropylcellulose) (HPC)) 97 % of control; (endpoint: mean survival time, dose: 8.0 micrograms/kg/injection, schedule: Q01DX009 (ip), vehicle: Klucel (hydroxypropylcellulose) (HPC)) 92 % of control; (endpoint: median survival time, dose: 25.0 mg/kg/injection, schedule: Q01DX009 (ip), vehicle: Klucel (hydroxypropylcellulose) (HPC)) 98 % of control; (endpoint: median survival time, dose: 50.0 mg/kg/injection, schedule: Q01DX009 (ip), vehicle: Klucel (hydroxypropylcellulose) (HPC)) 106 % of control. Besides, the T/C is 105 % of control (endpoint: median survival time, dose: 100.0 mg/kg/injection, schedule: Q01DX009 (ip), vehicle: Klucel (hydroxypropylcellulose) (HPC)) and 104 % of control (endpoint: median survival time, dose: 200.0 mg/kg/injection, schedule: Q01DX009 (ip), vehicle: Klucel (hydroxypropylcellulose) (HPC)).
As for `NCC(S)c1ccc(Cl)cc1` (stereo not given), the T/C was 98 % of control (endpoint: mean survival time, dose: 12.5 mg/kg/injection, schedule: Q04DX003 (ip), vehicle: saline); 93 % of control (endpoint: mean survival time, dose: 25.0 mg/kg/injection, schedule: Q04DX003 (ip), vehicle: saline); 96 % of control under setting [5].
Consider `Cc1cc[n+](CC(=O)CCc2ccc(C(=O)C[n+]3ccc(C)cc3)cc2)cc1`, for which the T/C reads like this: (endpoint: mean survival time, dose: 1.5 mg/kg/injection, schedule: Q04DX003 (ip), vehicle: saline) 100 % of control; (endpoint: mean survival time, dose: 3.0 mg/kg/injection, schedule: Q04DX003 (ip), vehicle: saline) 103 % of control; (endpoint: mean survival time, dose: 6.0 mg/kg/injection, schedule: Q04DX003 (ip), vehicle: saline) 95 % of control.
Consider `CC1[N-]C(/C=N/O)NC(C)N1.CC1[N-]C(/C=N/O)NC(C)N1.[Br][Ni+2][Br]` (stereo not given), for which the T/C is, setting by setting: (endpoint: mean survival time, dose: 5.0 mg/kg/injection, schedule: Q01DX001 (ip), vehicle: saline) 105 % of control; (endpoint: mean survival time, dose: 10.0 mg/kg/injection, schedule: Q01DX001 (ip), vehicle: saline) 103 % of control; (endpoint: mean survival time, dose: 20.0 mg/kg/injection, schedule: Q01DX001 (ip), vehicle: saline) 105 % of control; (endpoint: mean survival time, dose: 40.0 mg/kg/injection, schedule: Q01DX001 (ip), vehicle: saline) 108 % of control; (endpoint: mean survival time, dose: 75.0 mg/kg/injection, schedule: Q01DX001 (ip), vehicle: saline) 106 % of control; (endpoint: mean survival time, dose: 80.0 mg/kg/injection, schedule: Q01DX001 (ip), vehicle: saline) 105 % of control.
On to `CC(c1ccccc1C(=O)O)c1cc(F)cc2ccccc12` (stereo not given), for which the T/C by setting is: (endpoint: median survival time, dose: 25.0 mg/kg/injection, schedule: Q04DX003 (ip), vehicle: saline with Tween-80) 111 % of control; (endpoint: median survival time, dose: 50.0 mg/kg/injection, schedule: Q04DX003 (ip), vehicle: saline with Tween-80) 111 % of control; (endpoint: median survival time, dose: 100.0 mg/kg/injection, schedule: Q04DX003 (ip), vehicle: saline with Tween-80) 88 % of control; (endpoint: median survival time, dose: 200.0 mg/kg/injection, schedule: Q04DX003 (ip), vehicle: saline with Tween-80) 88 % of control.
As for `COc1ccc2c(oc(=O)c3c(Cl)nc(C)c(C)c32)c1OC`, the T/C was 102 % of control (endpoint: mean survival time, dose: 25.0 mg/kg/injection, schedule: Q01DX009 (ip), vehicle: Klucel (hydroxypropylcellulose) (HPC)); 95 % of control under setting [6]; 93 % of control under setting [7]; 93 % of control under setting [8].
`CN(C)c1ccc(C(=O)c2ccc(N(C)C)cc2)cc1`: the T/C was 96 % of control under setting [9], 102 % of control under setting [10] and 109 % of control under setting [11].
With `CC1CC2OC(=O)C(O)(CO)C2CC2(C)C(=O)C=CC12` (stereo not given), the T/C (endpoint: mean survival time, dose: 25.0 mg/kg/injection, schedule: Q04DX002 (ip), vehicle: saline) is 102 % of control and the T/C under setting [12] was 107 % of control.
On to `Nc1cc(Cl)c([N+](=O)[O-])cc1O`, for which the T/C under setting [6] was 91 % of control, the T/C under setting [7] is 94 % of control and the T/C under setting [8] is 94 % of control.
As for `COc1ccc(O)cc1C`, the T/C by setting is: (endpoint: mean survival time, dose: 100.0 mg/kg/injection, schedule: Q01DX009 (ip), vehicle: other) 96 % of control; (endpoint: mean survival time, dose: 200.0 mg/kg/injection, schedule: Q01DX009 (ip), vehicle: other) 102 % of control; (endpoint: mean survival time, dose: 400.0 mg/kg/injection, schedule: Q01DX009 (ip), vehicle: other) 98 % of control.
As to `CC(=O)N(C(C)=O)c1ccc2c3c(cccc13)CC2`, the T/C (endpoint: mean survival time, dose: 50.0 mg/kg/injection, schedule: Q04DX003 (ip), vehicle: saline with Tween-80) is 110 % of control; the T/C under setting [1] was 104 % of control; the T/C under setting [2] is 101 % of control.
For `N#CCCCCCCn1cnc2c(N)ncnc21`, the T/C was 102 % of control (endpoint: mean survival time, dose: 50.0 mg/kg/injection, schedule: Q04DX002 (ip), vehicle: saline with Tween-80); 97 % of control under setting [3]; 105 % of control (endpoint: mean survival time, dose: 100.0 mg/kg/injection, schedule: Q04DX002 (ip), vehicle: saline with Tween-80); 97 % of control under setting [4]; 90 % of control (endpoint: mean survival time, dose: 200.0 mg/kg/injection, schedule: Q04DX002 (ip), vehicle: saline with Tween-80).
On to `Cc1cc2nc(CC(O)(C(F)(F)F)C(F)(F)F)oc2cc1C`, for which the T/C is 91 % of control under setting [9], 92 % of control under setting [10] and 96 % of control under setting [11].
For `CS(=O)(=O)OCC(/C=C/C(COS(C)(=O)=O)OS(C)(=O)=O)OS(C)(=O)=O` (stereo not given), the T/C by setting is: under setting [7], 150 % of control; under setting [8], 175 % of control.
As for `CNCCSSCCN`, the T/C by setting is: under setting [13], 95 % of control; under setting [5], 98 % of control; under setting [9], 93 % of control; (endpoint: mean survival time, dose: 100.0 mg/kg/injection, schedule: Q04DX003 (ip), vehicle: saline) 93 % of control; (endpoint: mean survival time, dose: 200.0 mg/kg/injection, schedule: Q04DX003 (ip), vehicle: saline) 98 % of control; (endpoint: mean survival time, dose: 400.0 mg/kg/injection, schedule: Q04DX003 (ip), vehicle: saline) 98 % of control.
For the compound `CCCCCCCCCSCC`, the T/C was 100 % of control under setting [9], 100 % of control under setting [10] and 88 % of control under setting [11].
With `CC1CC(C)(C)OC(C(C)(C)C)O1` (stereo not given), the T/C runs as follows: under setting [12], 92 % of control; (endpoint: mean survival time, dose: 100.0 mg/kg/injection, schedule: Q04DX002 (ip), vehicle: saline) 100 % of control; (endpoint: mean survival time, dose: 200.0 mg/kg/injection, schedule: Q04DX002 (ip), vehicle: saline) 103 % of control.
Consider `CCOc1cc(/C=N/NC(=O)C[n+]2ccccc2)ccc1O`, for which the T/C is 99 % of control (endpoint: mean survival time, dose: 25.0 mg/kg/injection, schedule: Q01DX009 (ip), vehicle: saline with Tween-80); 103 % of control under setting [13]; 99 % of control under setting [9].
